The record followed here is patent US20250354151A1, “INHIBITORY AGENT FOR MYOCARDIAL CELL DEATH, AND PROPHYLACTIC OR THERAPEUTIC AGENT FOR MYOCARDIAL DISORDERS OR HEART FAILURE” (KYOTO PREFECTURAL PUBLIC UNIVERSITY CORPORATION, priority 2022, published 2025).

Series [1] concerns iPS cell-derived cardiomyocytes. The series is described as follows: Viability of cardiomyocytes after treatment with the TAOK1 inhibitor and doxorubicin (PrestoBlue). Type of series: cell-based, human. The conditions noted are these: C43 final concentration 10 nM, added simultaneously with doxorubicin; measured 3 days later; FIG. 4. The protocol: The iPS cell-derived cardiomyocytes were seeded on the 96-well plate coated with the growth factor reduced matrigel, after 5 days or more from the seeding, the TAOK1 inhibitor C43 (MedChemExpress) and the doxorubicin were simultaneously added, and 3 days later, the cell viability was measured with SpectraMaxM2e using the PrestoBlue reagent.

For series [2] the test system is unchanged. The experiment in a line: Oxygen consumption measurement (Seahorse XF Cell Mito Stress Test). The conditions noted are these: doxorubicin 1 μM for 3 hours vs 0 μM; FIG. 7. Type of series: cell-based, human. On the procedure: TAOK1 knock-out cells were obtained from the iPS cell-derived cardiomyocytes in a similar manner as in Test Example 2-1. The obtained cells were treated with the doxorubicin at 0 μM or 1 μM for 3 hours, and oxygen consumption was measured using a Seahorse XFe 96 Flux Analyzer (Agilent) and a Seahorse XF Cell Mito Stress Test Kit (Agilent).

For the compound `O=C(CNC(=O)c1ccc(-c2ccccc2)cc1)NC1CCCc2ccccc21` (centres unmarked) [Entry C43, N-[2-oxo-2-(1,2,3,4-tetrahydronaphthalen-1-ylamino)ethyl]biphenyl 4-carboxamide], in series [1], the “cell viability (myocardial cell death caused by the doxorubicin)” value is given as “inhibit the myocardial cell death caused by the doxorubicin”.

On to `COc1cccc2c1C(=O)c1c(O)c3c(c(O)c1C2=O)C[C@@](O)(C(=O)CO)C[C@@H]3O[C@H]1C[C@H](N)[C@H](O)[C@H](C)O1` [doxorubicin], for which the “oxygen consumption of the cardiomyocytes” value in series [2] is “significantly reduced”.
